Assay results as given in patent publication US7635693B2, “Methods for preventing and treating cancer using N-thiolated β-lactam compounds and analogs thereof” (University of South Florida, priority 2002, dated 2009).
Where “and” joins values, the source holds several entries; their conditions need not be identical. Equal entries are not always repeated. Where two headings read alike, the source gives them in different places.

Legend:
[1] = system: Jurkat T cells; test: Flow cytometry cell cycle distribution and sub-G1 population, Jurkat T cells; assay type: cell-based, human; conditions: 50 μM; for increase in S phase population / sub-G1 apoptotic population: 5 hours
Protocol: Cell Death Differ 5:1062-75. At each time point, cells are harvested, counted, and washed twice with PBS. Cells (5×10^6) are suspended in 0.5 ml PBS, fixed in 5 ml of 70% ethanol for at least 2 h at −20° C., centrifuged, resuspended again in 1 ml of propidium iodide staining solution (50 μg propidium iodide, 100 units RNase A and 1 mg glucose per ml PBS), and incubated at room temperature for 30 minutes. The cells are then analyzed with FACScan (Becton Dickinson Immunocytometry, CA), ModFit LT and WinMDI V.2.8 cell cycle analysis software (Verity Software; Topsham, Me.). The cell cycle distribution is shown as the percentage of cells containing G1, S, G2, and M DNA judged by propidium iodide staining. The apoptotic population is determined as the percentage of cells with sub-G1 (<G1) DNA content.

[2] = system: p38 MAP kinase; test: p38 phosphorylation, Western blot, Jurkat T cells; assay type: cell-based, human; conditions: for normalized increase in phosphorylation of p38 over control: FIG. 8D
Source text: It has been shown that multiple stimuli including DNA damaging agents induce apoptosis via activation of p38 MAP kinase (Kummer J L, et al., 1997, Apoptosis induced by withdrawal of trophic factors is mediated by p38 mitogen-activated protein kinase. J. Biol Chem 272:20490-4; Sanchez-Prieto R, et al., 2000, A role for the p38 mitogen-acitvated protein kinase pathway in the transcriptional activation of p53 on genotoxic stress by chemotherapeutic agents. Cancer Res 60:2464-72). […] The levels of Tyr-182 phosphorylated p38 protein were increased by 3-fold at 2 h and reached its maximum (˜9-fold) by 6 h (FIG. 8A). In has been shown that dual phosphorylation of p38 on Tyr-182 and Thr-180 activates this kinase (Raingeaud J, et al., 1995, Pro-inflammatory cytokines and environmental stress cause p38 mitogen-activated protein kinase activation by dual phosphorylation on tyrosine and threonine. J Biol Chem 270:7420-6). […] Therefore, lactam 1-induced DNA damage triggered activation of p38 before S population accumulation and apoptosis induction.

[3] = system: PARP; test: PARP cleavage, Western blot, Jurkat T cells; assay type: cell-based, human; conditions: 50 μM, 8 hours
Source text: A library of β-lactam analogs was screened for their ability to induce apoptosis. […] This is followed by preparation of cell lysates and measurement of apoptosis-specific caspase-3 activation (by cell-free caspase-3 activity assay) and PARP cleavage (by Western blotting).

[4] = system: Jurkat T cells; test: TUNEL assay (DNA strand breaks), Jurkat T cells; assay type: cell-based, human; conditions: for TUNEL-positive cell population (DNA damage): 4 hour
Protocol: Terminal deoxynucleotidyl transferase-mediated UTP nick end labeling (TUNEL) was performed to determine the extent of DNA strand breaks. TUNEL assay was performed with an APO-Direct kit per the manufacturer's instructions. In brief, cells are fixed in 1% paraformaldehyde and ethanol at […] overnight and then permeabilized with Proteinase K. After permeabilization, Fluorescein conjugated dNTP's and TdT enzyme (Terminal Deoxynucleotidyl Transferase) are added to the cells. The TdT enzyme is then able to label free ends of DNA with Fluorescein conjugated dNTPs that could then be detected by flow cytometry.
The assay was performed following manufacturer's instruction using the APO-Direct kit. In brief, the harvested cells were fixed in 1% paraformaldehyde for 15 min on ice, washed with PBS, and then fixed again in 70% ethanol at −20° C. overnight. The cells were then incubated in DNA labeling solution (containing terminal deoxynucleotidyl transferase (TdT) enzyme, fluorescein-conjugated dUTP and reaction buffer) for 90 min at 37° C. After removing the DNA labeling solution by rinsing cells with Rinsing Buffer, the cells were incubated with the Propidium Iodide/RNase A solution, incubated for 30 min at room temperature in the dark, and then analyzed by flow cytometry within 3 h of staining.

[5] = system: caspase-3; test: Cell-free caspase-3 activity assay on extracts of treated Jurkat T cells; assay type: cell-based, human; conditions: 50 μM, 8 hours
Protocol: (§1) Briefly, a prepared protein extract (20 μg) is incubated in a buffer containing 50 mM Tris/pH 8.0 along with each respective caspase substrate at 20 μM in a 96 well plate. The reaction mixture is incubated at 37° C. for 2 h.
A library of β-lactam analogs was screened for their ability to induce apoptosis. The screening procedure is accomplished by treating human Jurkat T cells with each compound at 50 μM for 8 hours. This is followed by preparation of cell lysates and measurement of apoptosis-specific caspase-3 activation (by cell-free caspase-3 activity assay) and PARP cleavage (by Western blotting).

[6] = system: caspase-9; test: Cell-free caspase-9 activity in lysates of VP-16-treated Jurkat T cells, inhibitor present; assay type: biochemical, human; conditions: lysates of Jurkat T cells treated with 50 μM VP-16 for 5 hours
Protocol: as §1

[7] = system: caspase-3; test: Cell-free caspase-3 activity in lysates of VP-16-treated Jurkat T cells, inhibitor present; assay type: biochemical, human; conditions: lysates of Jurkat T cells treated with 50 μM VP-16 for 5 hours
Protocol: as §1

[8] = system: caspase-8; test: Cell-free caspase-8 activity in lysates of VP-16-treated Jurkat T cells, inhibitor present; assay type: biochemical, human; conditions: lysates of Jurkat T cells treated with 50 μM VP-16 for 5 hours
Protocol: as §1

[9] = system: Jurkat T cells; assay type: cell-based, human; conditions: for non-viable cell population / cell death (trypan blue): 50 μM
Protocol: The trypan blue exclusion assay was performed by injecting 10 μl of cell suspension containing 0.2% trypan blue dye into a hemoicytometer and counting. Numbers of cells that absorbed the dye and those that excluded the dye are counted, from which the percentage of non-viable cell number to total cell number is calculated.

[10] = system: Jurkat T cells; test: Morphological changes of treated Jurkat T cells; assay type: cell-based, human; conditions: 50 μM, 8 hours
[11] = system: PARP; conditions: YT cells, 2, 10, 25, and 50 μM, 12 h
Protocol: Human Jurkat T cells and human prostate cancer LNCaP cells were cultured in RPMI 1640 medium, supplemented with 10% fetal bovine serum, 100 units/ml penicillin, and 100 μg/ml streptomycin. Human YT cells were cultured in RPMI 1640 medium supplemented with 1 mM MEM sodium pyruvate solution, 0.1 mM MEM non-essential amino acids solution, 10% fetal bovine serum, 100 units/ml penicillin, and 100 μg/ml streptomycin. All cell lines were maintained at 37° C. in a humidified incubator with an atmosphere of 5% CO2. […] Briefly, cells were harvested, washed with PBS and homogenized in a lysis buffer (50 mM Tris-HCl, pH 8.0, 5 mM EDTA, 150 mM NaCl, 0.5% NP-40, 0.5 mM phenylmethylsulfonyl fluoride, and 0.5 mM dithiothreitol) for 30 min at 4° C. Afterwards, the lysates were centrifuged at 12000×g for 15 min at 4° C. and the supernatants collected as whole-cell extracts. Equal amounts of protein extract (60 μg) were resolved by SDS-polyacrylamide gel electrophoresis and transferred to a nitrocellulose membrane (Schleicher & Schuell, Keene, N. H.) using a Semi-Dry Transfer System (Bio-Rad, Hercules, Calif.). The enhanced chemiluminescence Western blot analysis was then performed using specific antibodies to the proteins of interest.

[12] = system: caspase-3; conditions: LNCaP cells, 48 h
Protocol: To measure cell-free caspase-3 activity, whole cell extracts (20-30 μg) from untreated or treated LNCaP cells were incubated with 20 μM of the fluorogenic substrate caspase-3/caspase-7 (Ac-DEVD-AMC) for 30 min at 37° C. in 100 μl of assay buffer (50 mM Tris, pH 8.0).

[13] = system: LNCaP cells; conditions: LNCaP cells in soft agar, 50 μM, 21 day-incubation
Protocol: The soft agar assay was performed as described previously (Menter D G, Sabichi A L, Lippman S M., 2000, Selenium effects on prostate cell growth. Cancer Epidemiol Biomarkers Prev 9:1171-82) with a few modifications. In brief, in a six-well plate, a bottom feeder layer (0.6% agar) was prepared with DMEM media containing 10% fetal bovine serum, 100 units/ml penicillin, and 100 μg/ml streptomycin. […] Plates were incubated at 37° C. in 5% CO2 in a humidified incubator for three weeks. MTT (1 mg/ml) was added to each well and incubated overnight to allow complete formation of purple formazan crystals. The plates were then scanned and photographed, and the number of colonies was quantified by Quantity one v.4.0.3 software (Bio-Rad, Hercules, Calif.).

[14] = system: NK cells (YT line); conditions: YT cells, 2, 10, 25, and 50 μM, 24 h
Protocol: The trypan blue dye exclusion assay was performed by mixing 20 μl of cell suspension with 20 μl of 0.4% trypan blue dye before injecting into a hemocytometer and counting. The number of cells that absorbed the dye and those that exclude the dye were counted, from which the percentage of nonviable cell number to total cell number was calculated.

CCCCSN1C(=O)C(OC)C1c1ccccc1Cl (racemic) [lactam 4]
increase in S phase population [1]: 8% | sub-G1 apoptotic population [1]: 2% | normalized increase in phosphorylation of p38 over control [2]: 2.6 fold | decrease of PARP cleavage relative to lactam 1 [3]: ~65% | TUNEL-positive cell population (DNA damage) ([4]; 50 μM): 3% | decrease of caspase-3 activity relative to lactam 1 [5]: ~65%

CC(C)(C)OC(=O)NC(CC(=O)O)C(=O)CF [Boc-D-FMK, N-tert-butoxycarbonyl-Asp-fluoromethyl ketone]
effect on lactam 1-induced p38 phosphorylation ([2]; 4 hours, 50 μM lactam 1 plus inhibitor at 50 μM): not affected | TUNEL positivity on co-treatment with lactam 1 ([4]; 4 hours, 50 μM lactam 1 plus PD 169316 at 30 μM or Boc-D-FMK at 50 μM): 97% | direct inhibition of caspase-9 activity [6]: completely blocked | direct inhibition of caspase-3 activity [7]: completely blocked | direct inhibition of caspase-8 activity [8]: completely blocked

COC1C(=O)N(SC)C1c1ccccc1Br (racemic) [lactam 23]
non-viable cell population / cell death (trypan blue) ([9]; 24 h): 55%

O=C1CC2(CCCCC2)CN1 [lactam 5]
decrease of PARP cleavage relative to lactam 1 [3]: ~20% | decrease of caspase-3 activity relative to lactam 1 [5]: ~20%

COC1C(=O)NC1c1ccccc1Cl (racemic) [lactam 2]
increase in S phase population [1]: did not induce accumulation of either S or sub-G1 populations | sub-G1 apoptotic population [1]: did not induce accumulation of either S or sub-G1 populations | morphological changes [10]: no morphological changes | PARP cleavage [3]: induces neither caspase-3 activation nor PARP cleavage | TUNEL-positive cell population (DNA damage) ([4]; 50 μM): did not cause any DNA damage | caspase-3 activation [5]: induces neither caspase-3 activation nor PARP cleavage

CCSN1C(=O)C(OC)C1c1ccccc1Cl (racemic) [lactam 3]
increase in S phase population [1]: 15% | sub-G1 apoptotic population [1]: 10% | normalized increase in phosphorylation of p38 over control [2]: 3.2 fold | decrease of PARP cleavage relative to lactam 1 [3]: ~50% | TUNEL-positive cell population (DNA damage) ([4]; 50 μM): 16% | decrease of caspase-3 activity relative to lactam 1 [5]: ~50%

COC1C(=O)N(SC)C1c1ccccc1 (racemic) [lactam 48]
non-viable cell population / cell death (trypan blue) ([9]; 24 h): ~25%

COC1C(=O)N(SC)C1c1ccccc1I (racemic) [lactam 46]
non-viable cell population / cell death (trypan blue) ([9]; 24 h): 60%

COC1C(=O)N(SC)C1c1ccccc1F (racemic) [lactam 49]
non-viable cell population / cell death (trypan blue) ([9]; 24 h): ~35%

COC1C(=O)N(SC)C1c1ccc(Cl)cc1 (racemic) [lactam 6]
decrease of PARP cleavage relative to lactam 1 [3]: ~20% | decrease of caspase-3 activity relative to lactam 1 [5]: ~20%

COC1C(=O)N(SCc2ccccc2)C1c1ccccc1Cl (racemic) [lactam 7]
decrease of PARP cleavage relative to lactam 1 [3]: ~70% | decrease of caspase-3 activity relative to lactam 1 [5]: ~70%

COC1C(=O)N(SC)C1c1ccccc1[N+](=O)[O-] (racemic) [lactam 47]
PARP cleavage [11]: nor PARP cleavage | increase in caspase-3 activity over control ([12]; 2 μM): 2 fold | increase in caspase-3 activity over control ([12]; 10 μM): 2.5 fold | increase in caspase-3 activity over control ([12]; 25 μM): 4.2 fold | sub-G1 population ([1]; 12 h): 34% | sub-G1 population ([1]; 24 h): 57% | inhibition of colony formation [13]: ~100% | TUNEL-positive cells ([4]; 50 μM, 12-24 h): 82-90% | cells with DNA strand breaks (TUNEL) ([4]; 50 μM, 3 h): ~70% | cell death (trypan blue) ([9]; 10 μM, 24 h): 25% | cell death (trypan blue) ([9]; 25 μM, 3 h): 15% | trypan blue-positive cells ([9]; 25 μM, 6 h): 24% | cell death (trypan blue) ([9]; 25 μM, 24 h): 45% | non-viable cell population / cell death (trypan blue) ([9]; 24 h): ~94% and 80-90% | potency relative to lactam 1 ([9]; 24 h, trypan blue dose-response): ~2 fold | cell death (trypan blue) [14]: neither cell death
